Reference: US11142525B2 (Pfizer Inc., priority 2018, dated 2021)

Key:
[1] = system: phospho-SLP-76 (Ser376) in Jurkat cells; assay: Phospho-SLP-76 (Ser376) Homogeneous Time Resolved Fluorescence (HTRF) assay in Jurkat cells; assay type: cell-based; settings: Homo sapiens, Phospho-SLP-76 (Ser376) HTRF, anti-CD3 stimulation, read-out: SLP76 Assay_IC50
In short: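 Phospho-SLP-76 in lysates was read by sandwich HTRF and IC50 derived by four-parameter nonlinear regression. Before lysis, cells had received compound for 30 min (11-point, 3-fold series from 10 μM, 0.1% DMSO), followed by anti-CD3 F(ab)2 complex (200 μg/mL, 15 min, 37 °C).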

[2] = biological target: human full-length recombinant HPK1 (Homo sapiens (Human), UniProt Q92918); assay: HPK1 biochemical enzyme assay, microfluidic mobility shift assay (MSA); settings: HPK1 mobility shift assay; read-out: HPK1 Enzyme Assay_Ki
human full-length recombinant HPK1, sequence (Q92918 whole entry): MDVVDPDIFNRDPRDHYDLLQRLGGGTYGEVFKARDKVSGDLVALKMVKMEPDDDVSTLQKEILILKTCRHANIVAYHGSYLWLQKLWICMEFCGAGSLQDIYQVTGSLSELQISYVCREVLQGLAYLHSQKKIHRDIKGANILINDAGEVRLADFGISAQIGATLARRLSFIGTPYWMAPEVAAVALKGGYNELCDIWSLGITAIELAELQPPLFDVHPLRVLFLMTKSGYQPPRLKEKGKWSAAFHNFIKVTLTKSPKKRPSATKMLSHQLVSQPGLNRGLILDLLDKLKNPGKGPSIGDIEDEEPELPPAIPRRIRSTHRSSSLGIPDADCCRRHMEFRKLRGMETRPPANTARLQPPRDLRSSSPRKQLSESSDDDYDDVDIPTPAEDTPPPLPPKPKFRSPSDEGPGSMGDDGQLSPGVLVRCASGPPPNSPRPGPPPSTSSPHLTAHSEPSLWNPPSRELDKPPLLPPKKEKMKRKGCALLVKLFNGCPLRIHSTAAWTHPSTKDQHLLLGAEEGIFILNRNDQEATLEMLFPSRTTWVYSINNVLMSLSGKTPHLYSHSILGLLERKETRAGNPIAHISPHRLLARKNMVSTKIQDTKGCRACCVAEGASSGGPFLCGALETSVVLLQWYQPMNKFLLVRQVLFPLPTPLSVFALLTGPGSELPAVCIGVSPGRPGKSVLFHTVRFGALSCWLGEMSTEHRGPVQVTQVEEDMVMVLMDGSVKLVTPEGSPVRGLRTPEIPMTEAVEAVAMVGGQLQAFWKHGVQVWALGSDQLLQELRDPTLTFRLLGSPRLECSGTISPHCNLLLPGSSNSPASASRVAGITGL

Row | IC50 [1] | Ki [2] | Compound
1 | 391 nM | 0.7 nM | CCN(c1cc2c(c(CN)n1)CN(c1cccc(-c3nnc(C)n3CC)n1)C2=O)C(C)C [Example 167]
2 | 300 nM | 0.76 nM | CCn1c(C)nnc1-c1cccc(N2Cc3c(cc(N4[C@H](C)CC[C@H]4C)nc3CN)C2=O)n1 [Example 168]
3 | 179 nM | 0.95 nM | Cc1nnc(-c2cccc(N3Cc4c(cc(N5[C@H](C)CC[C@H]5C)nc4CN)C3=O)n2)n1C(C)C [Example 169]
4 | 264 nM | 0.36 nM | CCCn1c(C)nnc1-c1cccc(N2Cc3c(cc(N(CC)CC)nc3CN)C2=O)n1 [Example 170]
5 | 180 nM | 0.34 nM | CCN(C)c1cc2c(c(CN)n1)CN(c1cccc(-c3nnc(C)n3CC)n1)C2=O [Example 171]
6 | 85 nM | 0.55 nM | CCCn1c(C)nnc1-c1cccc(N2Cc3c(cc(N(C)C(C)C)nc3CN)C2=O)n1 [Example 172]
7 | 43 nM | 0.06 nM | CC[C@H](C)n1cnnc1-c1cccc(N2Cc3c(cc(N(C)CC)nc3CNC)C2=O)n1 [Example 173]
8 | 207 nM | 0.37 nM | CN(C)c1cc2c(c(CN)n1)CN(c1cccc(N3C(=O)OC[C@@H]3CF)n1)C2=O [Example 174]
9 | 185 nM | 0.94 nM | CCCn1c(CC)nnc1-c1cccc(N2Cc3c(cc(N4CCC[C@H]4C)nc3CNC)C2=O)n1 [Example 175]
10 | 152 nM | 0.26 nM | CNCc1nc(N(C)C)cc2c1CN(c1cccc(-c3nncn3CC(C)C)n1)C2=O [Example 177]
11 | 136 nM | 0.79 nM | CCc1nnc(-c2cccc(N3Cc4c(cc(N5CCC[C@H]5C)nc4CN)C3=O)n2)n1CC [Example 185]
